Source: PubChem BioAssay AID248 (DTP/NCI, 2004)
“And” between values parts separate entries of the source, which are not always exact repeats. Equal entries are not always repeated. Inconclusive results and toxic doses are left out.

Test system: L1210 leukemia ip in BDF1 mice, survival T/C
Assay: NCI In Vivo Anticancer Drug Screen. Data for tumor model L1210 Leukemia (intraperitoneal) in B6D2F1 (BDF1) mice
Settings: endpoint: mean survival time, higher = longer survival
In short: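 Ratio derived from survival: compound-dosed mice over vehicle-dosed mice, all bearing a transplantable tumor.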

[1] = dose: 100.0 mg/kg/injection, schedule: Q01DX001 (ip), vehicle: Klucel (hydroxypropylcellulose) (HPC)
[2] = dose: 100.0 mg/kg/injection, schedule: Q01DX009 (ip), vehicle: Klucel (hydroxypropylcellulose) (HPC)
[3] = dose: 200.0 mg/kg/injection, schedule: Q01DX001 (ip), vehicle: Klucel (hydroxypropylcellulose) (HPC)
[4] = dose: 200.0 mg/kg/injection, schedule: Q01DX009 (ip), vehicle: Klucel (hydroxypropylcellulose) (HPC)
[5] = dose: 400.0 mg/kg/injection, schedule: Q01DX001 (ip), vehicle: Klucel (hydroxypropylcellulose) (HPC)
[6] = dose: 400.0 mg/kg/injection, schedule: Q01DX009 (ip), vehicle: Klucel (hydroxypropylcellulose) (HPC)
[7] = dose: 50.0 mg/kg/injection, schedule: Q01DX009 (ip), vehicle: Klucel (hydroxypropylcellulose) (HPC)
[8] = dose: 50.0 mg/kg/injection, schedule: Q01DX001 (ip), vehicle: saline
[9] = dose: 100.0 mg/kg/injection, schedule: Q01DX001 (ip), vehicle: saline
[10] = dose: 200.0 mg/kg/injection, schedule: Q01DX001 (ip), vehicle: saline
[11] = dose: 400.0 mg/kg/injection, schedule: Q01DX001 (ip), vehicle: saline
[12] = dose: 100.0 mg/kg/injection, schedule: Q04DX003 (ip), vehicle: Klucel (hydroxypropylcellulose) (HPC)
[13] = dose: 200.0 mg/kg/injection, schedule: Q04DX003 (ip), vehicle: Klucel (hydroxypropylcellulose) (HPC)

CCOC(=O)c1cnc(SC)nc1Nc1ccccc1[N+](=O)[O-]
T/C (dose: 25.0 mg/kg/injection, schedule: Q01DX001 (ip), vehicle: Klucel (hydroxypropylcellulose) (HPC)): 96 % of control
T/C (dose: 50.0 mg/kg/injection, schedule: Q01DX001 (ip), vehicle: Klucel (hydroxypropylcellulose) (HPC)): 96 % of control
T/C [1]: 100 % of control
T/C [2]: 94 % of control
T/C [3]: 88 % of control
T/C [4]: 94 % of control
T/C [5]: 88 % of control
T/C [6]: 89 % of control

O=[N+]([O-])c1cc(/C=N/NC(=S)NC23CC4CC(CC(C4)C2)C3)ccc1Cl
T/C (dose: 75.0 mg/kg/injection, schedule: Q01DX001 (ip), vehicle: other): 97 % of control
T/C (dose: 150.0 mg/kg/injection, schedule: Q01DX001 (ip), vehicle: other): 89 % of control
T/C (dose: 300.0 mg/kg/injection, schedule: Q01DX001 (ip), vehicle: other): 91 % of control

CCCCCCCCCCCCCCCC[N+]1(C)CCOCC1
T/C [7]: 114 % of control
T/C [2]: 93 % of control

O=C(Nc1ccccc1)Oc1ccc(C2CCCCC2)cc1
T/C (dose: 100.0 mg/kg/injection, schedule: Q04DX002 (ip), vehicle: Klucel (hydroxypropylcellulose) (HPC)): 93 % of control
T/C (dose: 200.0 mg/kg/injection, schedule: Q04DX002 (ip), vehicle: Klucel (hydroxypropylcellulose) (HPC)): 121 % of control

S=P(N1CCCCCC1)(N1CC1)N1CC1
T/C (dose: 25.0 mg/kg/injection, schedule: Q01DX Z (ip), vehicle: saline): 110 % of control and 116 % of control
T/C [8]: 108 % of control
T/C (dose: 50.0 mg/kg/injection, schedule: Q01DX006 (iv), vehicle: saline): 104 % of control
T/C (dose: 50.0 mg/kg/injection, schedule: Q01DX Z (ip), vehicle: saline): 96 % of control
T/C (dose: 50.0 mg/kg/injection, schedule: Q01DX Z (oral), vehicle: saline): 122 % of control
T/C [9]: 113 % of control
T/C (dose: 100.0 mg/kg/injection, schedule: Q01DX006 (iv), vehicle: saline): 105 % of control
T/C (dose: 100.0 mg/kg/injection, schedule: Q01DX Z (ip), vehicle: saline): 170 % of control
T/C (dose: 100.0 mg/kg/injection, schedule: Q01DX Z (oral), vehicle: saline): 158 % of control
T/C [10]: 105 % of control
T/C (dose: 200.0 mg/kg/injection, schedule: Q01DX006 (iv), vehicle: saline): 104 % of control
T/C (dose: 250.0 mg/kg/injection, schedule: Q01DX001 (ip), vehicle: saline): 112 % of control
T/C (dose: 500.0 mg/kg/injection, schedule: Q01DX001 (ip), vehicle: saline): 104 % of control

CCOC(=O)NC1CCc2ccccc21 (configuration not stated)
T/C [9]: 98 % of control
T/C [10]: 104 % of control
T/C [11]: 93 % of control

CC1=C2CC3CCC(C)C2(CC1)C3(C)C (configuration not stated)
T/C (dose: 100.0 mg/kg/injection, schedule: Q01DX009 (ip), vehicle: saline): 88 % of control
T/C (dose: 400.0 mg/kg/injection, schedule: Q01DX009 (ip), vehicle: saline): 87 % of control

CCCCN(C)CC#N
T/C (dose: 6.25 mg/kg/injection, schedule: Q01DX009 (ip), vehicle: saline with Tween-80): 102 % of control
T/C (dose: 12.5 mg/kg/injection, schedule: Q01DX009 (ip), vehicle: saline with Tween-80): 96 % of control
T/C (dose: 12.5 mg/kg/injection, schedule: Q04DX003 (ip), vehicle: saline with Tween-80): 94 % of control
T/C (dose: 25.0 mg/kg/injection, schedule: Q01DX009 (ip), vehicle: saline with Tween-80): 104 % of control
T/C (dose: 25.0 mg/kg/injection, schedule: Q04DX003 (ip), vehicle: saline with Tween-80): 94 % of control

CC(=O)OC1CC2C(C(=O)O)C2C1OC(C)=O (configuration not stated)
T/C (dose: 100.0 mg/kg/injection, schedule: Q01DX001 (ip), vehicle: saline with Tween-80): 104 % of control
T/C (dose: 200.0 mg/kg/injection, schedule: Q01DX001 (ip), vehicle: saline with Tween-80): 92 % of control
T/C (dose: 400.0 mg/kg/injection, schedule: Q01DX001 (ip), vehicle: saline with Tween-80): 95 % of control

CC(C)=CN1CCOCC1
T/C (dose: 25.0 mg/kg/injection, schedule: Q01DX009 (ip), vehicle: Klucel (hydroxypropylcellulose) (HPC)): 94 % of control
T/C [7]: 92 % of control
T/C [2]: 97 % of control and 106 % of control
T/C [12]: 100 % of control
T/C [13]: 100 % of control
T/C (dose: 400.0 mg/kg/injection, schedule: Q04DX003 (ip), vehicle: Klucel (hydroxypropylcellulose) (HPC)): 102 % of control

CCOc1ccc([N+](=O)[O-])cc1C1N(Cc2ccc(OC)cc2)CCCN1Cc1ccc(OC)cc1
T/C (dose: 100.0 mg/kg/injection, schedule: Q01DX001 (ip), vehicle: acetone): 100 % of control
T/C (dose: 200.0 mg/kg/injection, schedule: Q01DX001 (ip), vehicle: acetone): 94 % of control
T/C (dose: 400.0 mg/kg/injection, schedule: Q01DX001 (ip), vehicle: acetone): 94 % of control

Nc1ccc(Cc2ccc(N)cc2[N+](=O)[O-])c([N+](=O)[O-])c1
T/C (dose: 100.0 mg/kg/injection, schedule: Q01DX001 (ip), vehicle: carboxymethylcellulose (CMC)): 98 % of control
T/C (dose: 200.0 mg/kg/injection, schedule: Q01DX001 (ip), vehicle: carboxymethylcellulose (CMC)): 105 % of control
T/C (dose: 400.0 mg/kg/injection, schedule: Q01DX001 (ip), vehicle: carboxymethylcellulose (CMC)): 100 % of control

O=C(CCCC(=O)NNC(=O)Nc1cccc(S(=O)(=O)F)c1)NNC(=O)Nc1cccc(S(=O)(=O)F)c1
T/C [8]: 106 % of control
T/C [9]: 112 % of control
T/C [10]: 96 % of control
T/C [11]: 112 % of control

CCOC(=O)/C(N=O)=C(/O)c1ccccc1
T/C (dose: 100.0 mg/kg/injection, schedule: Q04DX003 (ip), vehicle: saline with Tween-80): 103 % of control
T/C (dose: 200.0 mg/kg/injection, schedule: Q04DX003 (ip), vehicle: saline with Tween-80): 94 % of control
T/C (dose: 400.0 mg/kg/injection, schedule: Q04DX003 (ip), vehicle: saline with Tween-80): 96 % of control

CC(=O)N(c1ccccc1)c1ccc(-c2ccc(N(C(C)=O)c3ccccc3)cc2)cc1
T/C (dose: 50.0 mg/kg/injection, schedule: Q01DX001 (ip), vehicle: other): 100 % of control
T/C (dose: 100.0 mg/kg/injection, schedule: Q01DX001 (ip), vehicle: other): 105 % of control
T/C (dose: 200.0 mg/kg/injection, schedule: Q01DX001 (ip), vehicle: other): 100 % of control
T/C (dose: 400.0 mg/kg/injection, schedule: Q01DX001 (ip), vehicle: other): 89 % of control

O=S(=O)(Sc1ccc(Cl)cc1)c1ccc(Cl)cc1
T/C (dose: 100.0 mg/kg/injection, schedule: Q04DX002 (ip), vehicle: gum acacia): 101 % of control
T/C (dose: 200.0 mg/kg/injection, schedule: Q04DX002 (ip), vehicle: gum acacia): 107 % of control and 91 % of control
T/C (dose: 400.0 mg/kg/injection, schedule: Q04DX002 (ip), vehicle: gum acacia): 104 % of control

O=S(=O)(O)Cc1ccc(Cl)cc1Cl
T/C (dose: 100.0 mg/kg/injection, schedule: Q04DX002 (ip), vehicle: saline): 95 % of control
T/C (dose: 200.0 mg/kg/injection, schedule: Q04DX002 (ip), vehicle: saline): 103 % of control
T/C (dose: 400.0 mg/kg/injection, schedule: Q04DX002 (ip), vehicle: saline): 116 % of control

NC(=O)c1ccccc1NC(=O)CCCOc1ccccc1
T/C [1]: 100 % of control
T/C [12]: 94 % of control
T/C [3]: 93 % of control
T/C [13]: 97 % of control
T/C [5]: 96 % of control

CC(C)C1(C)C(=O)N(C)C(=O)N1Br (configuration not stated)
T/C [7]: 102 % of control
T/C (dose: 50.0 mg/kg/injection, schedule: Q04DX003 (ip), vehicle: Klucel (hydroxypropylcellulose) (HPC)): 100 % of control
T/C [1]: 107 % of control
T/C [2]: 96 % of control
T/C [12]: 97 % of control
T/C [3]: 98 % of control
T/C [13]: 105 % of control
T/C [5]: 98 % of control

O=CN(c1ccccc1)c1ccccc1
T/C (dose: 100.0 mg/kg/injection, schedule: Q01DX009 (ip), vehicle: other): 109 % of control
T/C (dose: 100.0 mg/kg/injection, schedule: Q04DX003 (ip), vehicle: saline): 100 % of control
T/C (dose: 200.0 mg/kg/injection, schedule: Q01DX009 (ip), vehicle: other): 106 % of control
T/C (dose: 200.0 mg/kg/injection, schedule: Q04DX003 (ip), vehicle: saline): 102 % of control
T/C (dose: 400.0 mg/kg/injection, schedule: Q01DX009 (ip), vehicle: other): 106 % of control
T/C (dose: 400.0 mg/kg/injection, schedule: Q04DX003 (ip), vehicle: saline): 109 % of control

O=C1CCCc2cc(Cl)c(Cl)cc21
T/C [2]: 108 % of control
T/C [4]: 96 % of control
T/C [6]: 101 % of control
